{
  "source": "patent US8163709B2",
  "about": "“TAK1-D mediated induction of cell death in human cancer cells by specific sequence short double-stranded RNAS” (Board of Regents of the University of Texas System, priority 2008, dated 2012)",
  "key": {"TAK1-A": {"system": "TAK1-A", "assay": "Autophosphorylation of the other (long) Tak1 splicing variants in H460 cells", "type": "cell-based, human", "settings": "siRNA 20 nM", "text": "In contrast only the long form (TAK1-A) is able to activate the NFκB pathway through phosphorylation of IKKα/β."}, "TAK1-D": {"biological_target": "T1, TAK1-D (Homo sapiens, UniProt O43318)", "T1 sequence (O43318 1-491 isoform O43318-4)": "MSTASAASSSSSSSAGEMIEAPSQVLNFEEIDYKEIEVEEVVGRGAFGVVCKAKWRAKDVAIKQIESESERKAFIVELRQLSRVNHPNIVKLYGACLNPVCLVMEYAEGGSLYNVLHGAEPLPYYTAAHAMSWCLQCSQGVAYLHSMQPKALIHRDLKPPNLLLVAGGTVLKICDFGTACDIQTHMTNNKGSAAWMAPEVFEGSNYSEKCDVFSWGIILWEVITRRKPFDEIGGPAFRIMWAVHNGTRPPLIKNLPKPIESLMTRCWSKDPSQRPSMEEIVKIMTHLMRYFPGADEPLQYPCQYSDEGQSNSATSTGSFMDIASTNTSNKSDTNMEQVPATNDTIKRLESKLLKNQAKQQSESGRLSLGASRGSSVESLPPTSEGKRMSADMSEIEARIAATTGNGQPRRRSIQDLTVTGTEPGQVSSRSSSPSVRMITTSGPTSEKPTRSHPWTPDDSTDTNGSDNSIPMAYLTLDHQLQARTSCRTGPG", "assay": "Binding of radiolabeled siRNAs to immobilized FLAG-TAK1-D", "design": "made in house", "settings": "kinase assay buffer conditions, 3 experiments", "text": "FIGS. 2A-C: Effect of dsRNAs on the activity of purified recombinant TAK1-D protein. (FIG. 2A) In vitro kinase assay showing the activation of TAK1-D autophosphorylation by siRNA si5. FLAG-tagged TAK1-D and His-tagged TAB1 were coexpressed in Hela cells and purified by immunoprecipitation with anti FLAG antibody. […] Error bars indicate the standard error of 3 experiments.\nTo verify if siRNA si5 indeed interacts with TAK1-D directly, the activation of the kinase was studied in vitro using purified proteins. […] To test whether the increased activation of the TAK1-D/TAB1 complex by siRNA si5 is caused by an increased affinity of the RNA molecule to the kinase, binding of radiolabeled siRNAs to immunoprecipitated FLAG tagged TAK1-D was measured. In FIG. 2C the amount of RNA bound to immobilized FLAG-TAK1-D is given."}, "H460 cells [1]": {"system": "H460 cells", "assay": "BrdU pulse labeling and flow cytometry of H460 cells", "type": "cell-based, human", "procedure": "FIGS. 10A-D: Reaction of NCI-H460 cells to activation of p38 MAPK and SAPK/JNK. (FIG. 10A) BrdU labeling was used to determine the amount of NCI-H460 cells in the S phase of the cell cycle. Cells were pulse labeled with 100 μM BrdU for 15 minutes (0 and 4 h) or 10 μM for 1 h (24 h). Dot blots show DNA content versus BrdU signal. The number of S phase cells decreases within a few hours after treatment of cells with siRNA si5. (FIG. 10B) Flow cytometry dot blots, showing the cellular DNA content versus the amount of cleaved Caspase 3. Within 24 h after exposure to siRNA si5 cells in G1 as well as in the S phase of the cell cycle show Caspase 3 activation. (FIG. 10C) Activation of Caspase 3 leads to PARP cleavage and to (FIG. 10D) nuclear chromatin condensation visible in Hoechst 33342 stained NCI-H460 cells, typical of apoptosis.\nTo test this hypothesis, H460 cells were pulse labeled with BrdU for 15 min at various time points after treatment with siRNA si5 and analyzed by flow cytometry immediately afterwards. […] In particular, it can be seen that the fraction of cells in the S phase of the cell cycle drops from 48% in untreated cells to 27% 4 h after incubating the cells with 20 nM siRNA si5."}, "H460 cells [2]": {"system": "H460 cells", "assay": "Apoptosis in H460 cells (caspase 3 cleavage, PARP cleavage, nuclear morphology)", "type": "cell-based, human", "text": "Cell cycle arrest triggers programmed cell death in many tumor cell lines.\nAs cell cycle arrest is incompatible with survival in many tumor cell lines the cellular response of H460 cells to the treatment with dsRNA si5 was investigated.\nSurvival assay and apoptosis scoring."}, "p38 MAPK": {"system": "p38 MAPK", "assay": "p38 MAPK cascade activation in HCC2279 cells (Western blot)", "type": "cell-based, human", "text": "A possible application for the above mentioned findings in cancer therapy requires data on the effects of dsRNA mediated activation of Tak1-D in other tumors and in normal tissues. To test whether dsRNA mediated cell killing also occurs in other tumor cell lines, the NSCLC cell line HCC2279 was chosen. This cell line originated from an adenocarcinoma and was initially described by Wistuba et al. (1999)."}, "H460 xenograft tumors": {"system": "H460 xenograft tumors", "assay": "Immunohistochemistry for cleaved Caspase-3 in H460 xenograft tumors", "type": "in vivo, mice", "settings": "16 hours after intratumoral injection", "procedure": "To gain an insight into the mechanisms of dsRNA si5-induced growth delay in H460 xenograft tumors shown in FIG. 26, the tumors were analyzed by immunohistochemical staining for apoptotic activation of Caspase-3. Two tumors with a volume of about 500 μl were injected with a liposomal preparation of active and control dsRNA as described above. Sixteen hours after injection mice were sacrificed and the tumors were fixed in formaldehyde. After paraffin embedding 5 μm sections were cut from the central region of the tumor. The sections were stained immunohistochemically using a primary antibody against cleaved Caspase-3. The primary antibody was detected using a biotinylated secondary antibody and an peroxidase ABC-Kit (Vector Laboratories). Diaminobenzidine (DAB) was used as a substrate for immunohistochemical detection and the slides were counterstained with Hematoxylin."}, "[3]": {"system": "normal human skin fibroblasts", "assay": "Crystal Violet staining of normal human skin fibroblasts", "type": "cell-based", "settings": "up to 20 nM, 48 h", "procedure": "In order to obtain preliminary data describing the response of normal tissue cells to dsRNA mediated Tak1-D activation normal human fibroblasts as well as human bronchial epithelial cells (HBEC) were plated into 12-well multiwell plates, treated with siRNA si5 or si6 in different concentrations and stained with Crystal Violet 48 h later. […] […]."}},
  "note": "Entries after “also recorded” stand apart in the source; their conditions may differ.",
  "data": [
    {"substance": "si5: 21-mer siRNA against TLK1 mRNA: GGCUUUUGACCUUUAUGAAtt (SEQ ID NO: 2) / ttCCGAAAACUGGAAAUACUU (SEQ ID NO: 3) (sense GGCUUUUGACCUUUAUGAATT; antisense TTCCGAAAACUGGAAAUACUU; chemistry not given here; one strand is listed 3' to 5')", "values": [
      {"measurement": "activating autophosphorylation of the other three splicing variants of Tak1", "setting": "TAK1-A", "result": "does not induce activating autophosphorylation"},
      {"measurement": "amount of RNA bound to immobilized FLAG-TAK1-D", "setting": "TAK1-D", "result": "significantly greater; also recorded: increased binding"},
      {"measurement": "fraction of cells in the S phase of the cell cycle", "setting": "H460 cells [1]; H460, 4 h after 20 nM, untreated cells 48%", "result": 27, "unit": "%"},
      {"measurement": "DNA synthesis", "setting": "H460 cells [1]; H460, 24 h after treatment", "result": "ceased almost completely"},
      {"measurement": "cell cycle arrest", "setting": "H460 cells [1]; NCI-H460, first 24 h", "result": "arrest of NCI-H460 cells in the G1, S, and G2 phase of the cell cycle"},
      {"measurement": "cellular apoptotic response with inactivated Tak1-D catalytic activity", "setting": "H460 cells [2]; H460, adenoviral K63W, 48 h after siRNA", "result": "significantly reduced"},
      {"measurement": "nuclear morphology, HOECHST 33342 staining", "setting": "H460 cells [2]; H460 cells, 48 h", "result": "typical apoptotic chromatin condensation and fragmentation"},
      {"measurement": "time until PARP cleavage", "setting": "H460 cells [2]; H460 cells, Western blot", "result": "≤ 24", "unit": "h"},
      {"measurement": "caspase 3 cleavage", "setting": "H460 cells [2]; NCI-H460, 24 h after treatment", "result": "cells from the G1 and the S phase of the cell cycle show caspase 3 cleavage"},
      {"measurement": "fraction of G1 and S phase cells staining positive for cleaved caspase 3", "setting": "H460 cells [2]; NCI-H460, 48 h, compared with 24 h", "result": "higher"},
      {"measurement": "activation of p38 MAPK", "setting": "p38 MAPK", "result": "activate p38 MAPK"},
      {"measurement": "apoptotic activation of Caspase-3 (DAB staining)", "setting": "H460 xenograft tumors", "result": "visible in many cells"},
      {"measurement": "growth inhibitory or cytotoxic effect", "setting": "[3]", "result": "no growth inhibitory or cytotoxic effect could be observed; also recorded: no cytotoxicity or growth delay"}
    ]}
  ]
}
